# A melting point compilation (Tetko et al.; mined from patent text by program, amines drawn as free bases though some values may be those of a salt)
row,Structure (SMILES),melting point [°C]
1,O=S(=O)(CC1CC1)c1nc(-c2ccccn2)c(-c2ccccn2)[nH]1,210 to 212
2,CC(C)Cn1c(CNC(=O)OC(C)(C)C)c(-c2ccc(Cl)cc2)c2cc(/C=C/C(N)=O)ccc2c1=O,152 to 154
3,Cc1ccc(S(=O)(=O)N=[N+]=[N-])cc1,79 to 82.5
4,CCCn1c(CC)ccc1Cc1cccc(NC(N)=O)c1,59 to 61
5,c1ccc(C(OC2CCN(CCCOc3ccc(-c4nnn[nH]4)cc3)CC2)c2ccccc2)cc1,167 to 171
6,CCc1cccc(CC)c1NC(=O)c1c2n(c(C)cc1=O)CCCC2,134 to 137
7,CC(C)Cn1c(CNC(=O)OC(C)(C)C)c(-c2cccc(F)c2)c2cc(C(=O)O)ccc2c1=O,206 to 207
8,Cc1cc(C)n(Cc2ccc(Cl)cc2Cl)c1/C=C/C(=O)O,193 to 194
9,NCC1COc2cc(F)cc(-c3cccc(Cl)c3)c2N1 (stereo not drawn),76
10,O=C1NC2COc3cc4c(cc3C2c2ccsc21)OCO4 (stereo not drawn),> 250
11,CC1CCc2ccc(OCC3CO3)cc2O1 (stereo not drawn),67 to 69
12,CCOc1ccc(-c2cc(C)cn2-c2ccc(S(N)(=O)=O)cc2)cc1,135 to 139
13,COC(=O)C1=C(C)NC(C)=C(C(=O)OCCCCCCOc2cc(-c3ccc(OC)cc3)[nH]n2)C1c1cccc(Cl)c1Cl (stereo not drawn),146 to 148
14,CC(C)CC(C(=O)OCc1ccccc1)N1C(=O)C2(CCCN2C(=O)OC(C)(C)C)CC1O (mixture of isomers),134 to 135
15,CCCC(NS(=O)(=O)c1ccc(Cl)cc1)C(=S)Nc1ccc(CC(=O)OCC)cc1 (racemic),121 to 123
16,CC1OC(=O)N2c3ccc(O)cc3CCC12 (stereo not drawn),258 to 259
17,COc1ccc(S(=O)(=O)N2CCc3cccc(-c4cccc(F)c4)c32)cc1,180 to 181
18,COc1ccc(CCN(C)CCCCc2ccc(NC(=O)c3cccc4c(=O)c5ccccc5[nH]c34)cc2)cc1,143
19,CSc1cncc(-c2nc(=O)c3ccccc3s2)n1,202 to 203
20,Cc1cc(-c2ccc(C(F)(F)F)nc2)nc(-c2ccnc(-c3ccc(S(N)(=O)=O)s3)c2)n1,289
21,N#Cc1ccc(-c2ccc(OCCCCCC(=O)NO)cc2)cc1,129
22,O=C(c1ccccc1)c1ccc2n1CCCCC2C(=O)O (stereo not drawn),163 to 165
23,COc1cc(-n2cc[nH]c2=O)c(Cl)cc1Cn1nc(-c2ccc(C(F)(F)F)cc2)oc1=O,201 to 202
24,Cc1ncc(C#N)c(Nc2cccc3[nH]ccc23)c1-c1cc2ccccc2o1,192 to 193
25,CC1(C)CC(C)(C)CC(CCCC(=O)O)(NC(=O)CCl)C1,140 to 141

row,Structure (SMILES),melting point [°C]
1,C=CC(=O)NC1=CC(O)(C(C)=O)C(C(=O)O)C=C1 (stereo not drawn),171
2,CC(=O)Nn1cc(-c2cccnc2)nc1Cl,129 to 131
3,C=Cc1cc(C2=NCCO2)ccc1OCCCCCc1cc(C)no1,116 to 117
4,CC(C)Nc1nc2cc(Cl)c(Cl)cc2n1C1OC(CO)C(O)C1O (stereo not drawn),197 to 199
5,CCCn1c(CCO)nc(C(C)C)c1Sc1cc(Cl)cc(Cl)c1,88 to 89
6,CCNc1c(C#N)cnn1-c1ccc(Cl)c(Cl)c1Cl,145
7,CN1N=C(C2CCCCC2)CC1=O,170 to 172
8,CCNC(=O)c1cccc(NC(=O)c2nnn(Cc3ccc(Cl)c(Cl)c3)c2C)c1,192
9,CN1C(=O)[C@H](NC(=O)C2Cc3ccccc3O2)N=C(c2ccccc2)c2ccccc21 (stereo partly drawn),141 to 180
10,O=C(N[C@@H](Cc1c[nH]c2ccccc12)C(=O)O)c1ccc(Br)cc1,162 to 163
11,CC(C)CCCC(C)C1CCC2C3CC(Br)=C4CC(O)CCC4(C)C3CCC12C (stereo not drawn),155
12,O=C(O)C1=Cc2cc(Cl)cnc2NC1C(F)(F)F (stereo not drawn),287 to 288
13,CC(C)=NNc1cc2c(nn1)CCN(C(=O)c1ccc(Cl)cc1Cl)C2,211 to 214
14,Cc1c(N2CCN(C)C(C)C2)c(F)cc2c(=O)c(C(=O)O)cn(C3CC3)c12 (stereo not drawn),181 to 183
15,N#Cc1ccc(C2CC(n3ccnc3)c3ccccc3N2)cc1 (stereo not drawn),166 to 168
16,O=C1CCN(Cc2ccccc2OC(F)(F)F)CC1C(c1ccc(F)cc1)c1ccc(F)cc1 (stereo not drawn),88 to 89
17,O=c1[nH]c2cc(Cl)ccc2c(=O)n1S(=O)(=O)c1ccc(Cl)cc1F,267 to 268
18,Nc1ccccc1C(=O)NC(=O)Nc1ccc(Oc2ncc(Br)cn2)c(Cl)c1,196 to 200
19,CCCCCCCC(=O)c1[nH]c(=O)[nH]c1C,220 to 221
20,CCOC(=O)/C=C/c1cnc(-c2ccc(O)c(C34CC5CC(CC(C5)C3)C4)c2)cn1,212 to 215
21,O=C(O)[C@@H]1CCCC[C@H]1C(=O)CCS (relative stereo),71 to 74
22,COCCC1(C(=O)N[C@@H](Cc2ccc(NC(=O)c3c(Cl)cccc3Cl)cc2)C(=O)OC)CCCC1,85 to 87
23,COC(=O)C(C)(C)Nc1cc(Cl)ccc1[N+](=O)[O-],87 to 89
24,CCCc1c(C(=O)C(C)C)c2ccc(C(N)=O)cc2n1Cc1ccccc1C,190 to 191
25,CC(C)(C)OC(=O)N1CCN(c2ccc(OCc3ccccc3)cn2)CC1,93 to 94

row,Structure (SMILES),melting point [°C]
1,Cc1cn(Cc2ccc3c(c2)-c2[nH]nc(-c4ccsc4)c2C3)cn1,122 to 125
2,CCCCCCCCCCCCN(CCCCCCCCCCCC)C(=O)c1c(C)cc(C)c(C)c1O,56
3,Cc1cc(C)cc(Sc2c(C(C)C)c(=O)[nH]c(=O)n2CC2=CCCC2CO)c1 (stereo not drawn),66 to 68
4,CC1Cc2cc3c(cc2C(c2ccc([N+](=O)[O-])cc2)=NN1C(=S)Cl)OCO3 (stereo not drawn),187 to 188
5,O=C(O)c1ccc(-c2nc3ccc([N+](=O)[O-])cc3s2)cc1,352 to 355
6,COc1ccc(NC(=O)NCc2ccc3c(c2)CN(C2CCC(=O)NC2=O)C3=O)cc1OC (stereo not drawn),216 to 218
7,O=C(O)COc1ccc2c(=O)c3cccc(Cl)c3oc2c1Cl,283 to 286
8,CSC(=C(C#N)C#N)N1CCc2ccccc2CC1,129 to 132
9,O=C(NCCCCCCCCCNC(=O)c1ccc(OC(F)(F)F)cc1)c1ccc(OC(F)(F)F)cc1,144 to 145
10,CCCC(=O)c1cnc2c(OCCOC)cccc2c1Nc1ccccc1C,75 to 77
11,Nc1cc(Cl)ccc1-c1noc(=O)[nH]1,159 to 161
12,CC(C)(/C=C/Br)C(=O)O,30
13,NC1=NC(c2ccc(OC(F)(F)F)cc2)(c2cccc(-c3cncc(F)c3)c2)C2=NCCON12 (stereo not drawn),120 to 135
14,COC(=O)c1ccc(NS(C)(=O)=O)c(C=O)c1,161 to 163
15,CC(C)(C)OC(=O)NCCOc1ccc(OCC2(C)OCCO2)cc1,80 to 82
16,OC1CC(NCc2ccccc2)c2ccccc21 (stereo not drawn),125 to 127
17,CC(C)(COc1ccc(O)c(C(N)=O)c1)[N+](=O)[O-],145 to 148
18,COCc1ccc(-c2ccc3nnn(Cc4ccc5ncccc5c4)c3n2)cc1F,200 to 201
19,CCOC(=O)Cc1c(C)[nH]c2ccc(F)cc12,61 to 62
20,CCCCOCC(COCc1ccccc1)OCn1cnc2c(O)nc(NC(C)=O)nc21 (stereo not drawn),139 to 141
21,CCC(C)Nc1c(N)cc(C)c(C)c1[N+](=O)[O-] (stereo not drawn),36 to 37
22,C=CCC(O)(C(=O)c1ccccc1)c1ccccc1 (stereo not drawn),85 to 90
23,COc1ccc(Nc2ccc(C(=O)O)cc2)c2ccccc12,153 to 154
24,CCN1CCCC1CNC(=O)c1cc(N(C#N)S(C)(=O)=O)ccc1OC (stereo not drawn),50 to 54
25,Cc1nc(C)c(Cl)c(NCc2cccc(Oc3ccc4ncc([N+](=O)[O-])n4n3)c2)n1,222 to 223

row,Structure (SMILES),melting point [°C]
1,CC(C)n1c(=O)nc(-c2ccccc2)c2ccc(CO)cc21,223 to 225
2,O=C1NCSc2ccsc21,136 to 138
3,O=[N+]([O-])c1cc([N+](=O)[O-])c(Nc2cccc3c2OC(F)(F)O3)c(C(F)(F)F)c1,144 to 146
4,CC(C)C(C(=O)CCC(NC(=O)OCc1ccccc1)C(=O)OCc1ccccc1)C(=O)OC(C)(C)C (stereo not drawn),69 to 71
5,CCOC(=O)C(O)=Cc1ccc(S(=O)c2ccc(F)cc2)cn1 (stereo not drawn),148 to 150
6,CC(=O)N1CCC(c2nn(-c3ccc(F)cc3)c3ccccc23)CC1,99 to 101
7,CC12CCC3c4ccc(C(=O)O)cc4CCC3C1CCC2C(=O)c1cc(F)cc(F)c1 (stereo not drawn),258 to 261
8,Cc1nc2ccccc2c2c([N+](=O)[O-])cnn12,178 to 179
9,COc1ccc(-c2cnc3[nH]cc(C(=O)NC4CCN(C(C)=O)C4)c3n2)cc1OC (stereo not drawn),211 to 212
10,CS(=O)(=O)N1CCCC(Nc2nccc(-n3nnc4ccccc43)n2)C1 (stereo not drawn),196 to 197
11,Cc1ccc(-c2cc(NCCN(C)C)c3ccccc3n2)s1,103 to 105
12,COc1cccc2c(=O)c3cc(F)ccc3oc12,170 to 172
13,Cc1nc2c(-c3cccc(N4CCN(C)CC4)c3)cnn2c(N)c1-c1cccc(Br)c1,107 to 113
14,CCN(CC)C(=O)c1cc(OC)cc(Oc2cccc(C(F)(F)F)c2)n1,78 to 89
15,O=C(Cc1ccc(OCc2ccccc2)cc1)NC1(C(=O)O)Cc2ccc(-c3ccc(Cl)cc3)cc2C1 (stereo not drawn),234
16,CCOCc1nc2c(Cl)nc(C)c(C)c2n1NC1CCOCC1,137 to 139
17,CC(C)(C)OC(=O)N1CCN(C(=O)C2CCN(C(=O)OCc3ccccc3)C2)CC1 (stereo not drawn),70 to 74
18,CCOC(=O)C1=C(COCc2nc(C)cs2)NC(C)=C(C(=O)OC)C1c1ccccc1Cl (stereo not drawn),107 to 110
19,CO[C@@H]1C=C2C=C3C(=C(C)C(=O)N3C)C[C@]2(C)[C@@H](C)[C@H]1O,165 to 170
20,CCCCCC(=O)NS(=O)(=O)/C=C/c1cc(OC(C)C)nn1Cc1ccc(Cl)cc1Cl,73 to 75
21,N#CCCNC(=O)c1cccc(-c2ccnc3cc(Cc4cccc(C(F)(F)F)c4)nn23)c1,153 to 154
22,CNC(=O)c1nc(-c2ccccc2)c(-c2ccc(=O)n(C(C)C)n2)s1,165 to 168
23,COc1cccc(OC)c1-c1cc(C(=O)NC2(C(=O)O)C3CC4CC(C3)CC2C4)nn1-c1ccc(N)cc1C (stereo not drawn),205
